Results published in patent publication US10829520B2, “Beta-hairpin peptidomimetics” (POLYPHOR AG, priority 2015, dated 2020).
Where a SMILES comes first, the peptide text is derived from it. Bridges are numbered along the chain shown (N, C = ends). [ ]: non-standard residue; d: D form. Tle = CC(C)(C)[C@H](N)C(=O)O; dDab = NCC[C@@H](N)C(=O)O; Nle = CCCC[C@H](N)C(=O)O; Orn = NCCC[C@H](N)C(=O)O; Dab = NCC[C@H](N)C(=O)O; Dap = NC[C@H](N)C(=O)O

Tests used:
Assay type in all cases: cell-based
[1] = system: human red blood cells (hRBC); experiment: Hemolysis of human red blood cells; details: red cells of human, 1 h
Method in brief: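 Percent lysis of washed human erythrocytes after 1 h at 37° C. with 100 μg/mL peptide, calculated from OD540 of 8-fold diluted supernatant as a fraction of the 2.5% Triton X-100 value.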

[2] = system: Acinetobacter baumannii DSM 30008; details: DSM 30008
Method in brief: (§1)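 Peptide MICs were determined by CLSI broth microdilution in cation-adjusted Mueller-Hinton II broth with 0.002% polysorbate 80, inoculum approx. 10^6 CFU/mL. Two-fold serial dilutions of peptide were tested. MIC was the lowest concentration (μg/mL) with no visible growth after 18-20 hours at 35° C.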

[3] = system: Acinetobacter baumannii 872842; details: 872842
[4] = system: Klebsiella pneumoniae SSI #3010; details: SSI #3010
Method in brief: as §1

[5] = system: Escherichia coli ATCC 25922; details: ATCC 25922
Method in brief: as §1

[6] = system: Pseudomonas aeruginosa ATCC 27853; details: ATCC 27853
Method in brief: as §1

[7] = system: Klebsiella pneumoniae 968733; details: 968733
[8] = system: Escherichia coli 926415; details: 926415

| Structure (SMILES) | Hemolysis at 100 μg/mL ([1]; 100 μg/mL) | Acinetobacter baumannii DSM 30008 MIC [2] | Acinetobacter baumannii 872842 MIC [3] | Klebsiella pneumoniae SSI #3010 MIC [4] | Escherichia coli ATCC 25922 MIC [5] | Pseudomonas aeruginosa ATCC 27853 MIC [6] | Klebsiella pneumoniae 968733 MIC [7] | Escherichia coli 926415 MIC [8] | Hemolysis at 100 μg/mL [1]; 100 |
| --- | --- | --- | --- | --- | --- | --- | --- | --- | --- |
| CCCC[C@@H]1NC(=O)[C@@H]2CCCN2C(=O)[C@H]2CCCN2C(=O)[C@H](CO)NC(=O)[C@H](C)NC(=O)[C@H](C(C)(C)C)NC(=O)[C@@H](NC(=O)[C@H](Cc2c[nH]c3ccccc23)NC(C)=O)CSSC[C@@H](C(=O)N[C@@H](CCCN)C(=O)N[C@H](CCN)C(=O)N[C@H]2CCNC(=O)[C@H]([C@@H](C)O)NC(=O)[C@H](CCN)NC(=O)[C@H](CCN)NC(=O)[C@H](CC(C)C)NC(=O)[C@@H](Cc3ccccc3)NC(=O)[C@H](CCN)NC2=O)NC(=O)[C@H](Cc2ccc(O)cc2)NC(=O)[C@H](CO)NC1=O [Ex. 49] (Ac-WC[Tle]AS[dP]P[Nle]SYC[Orn][dDab][Dab][Dab][dF]L[Dab][Dab]T; disulfide 2-11; lactam 14-C) | <1% | 0.25 µg/mL | 1 µg/mL | 0.5 µg/mL | 0.25 µg/mL | 1 µg/mL | 1 µg/mL | 0.5 µg/mL | – |
| CCCC[C@@H]1NC(=O)[C@@H]2CCCN2C(=O)[C@H]2CCCN2C(=O)[C@H](CO)NC(=O)[C@H](C)NC(=O)[C@H](C(C)(C)C)NC(=O)[C@@H](NC(=O)[C@H](Cc2c[nH]c3ccccc23)NC(C)=O)CSSC[C@@H](C(=O)N[C@@H](CCN)C(=O)N[C@@H](CN)C(=O)N[C@H]2CCNC(=O)[C@H]([C@@H](C)O)NC(=O)[C@H](CCN)NC(=O)[C@H](CCN)NC(=O)[C@H](CC(C)C)NC(=O)[C@@H](Cc3ccccc3)NC(=O)[C@H](CCN)NC2=O)NC(=O)[C@H](Cc2ccc(O)cc2)NC(=O)[C@H](CO)NC1=O [Ex. 50] (Ac-WC[Tle]AS[dP]P[Nle]SYC[Dab][Dap][Dab][Dab][dF]L[Dab][Dab]T; disulfide 2-11; lactam 14-C) | 1% | 0.25 µg/mL | 0.5 µg/mL | 0.25 µg/mL | 0.25 µg/mL | 1 µg/mL | 2 µg/mL | 0.5 µg/mL | – |
| CCCC[C@@H]1NC(=O)[C@@H]2CCCN2C(=O)[C@H]2CCCN2C(=O)[C@H](CO)NC(=O)[C@H](C)NC(=O)[C@H](C(C)(C)C)NC(=O)[C@@H](NC(=O)[C@H](Cc2ccccc2)NC(C)=O)CSSC[C@@H](C(=O)N[C@@H](CCCN)C(=O)N[C@@H](CCN)C(=O)N[C@H]2CCNC(=O)[C@H]([C@@H](C)O)NC(=O)[C@H](CCN)NC(=O)[C@H](CCN)NC(=O)[C@H](CC(C)C)NC(=O)[C@@H](Cc3ccccc3)NC(=O)[C@H](CCN)NC2=O)NC(=O)[C@H](Cc2ccc(O)cc2)NC(=O)[C@H](CO)NC1=O [Ex. 51] (Ac-FC[Tle]AS[dP]P[Nle]SYC[Orn][Dab][Dab][Dab][dF]L[Dab][Dab]T; disulfide 2-11; lactam 14-C) | <1% | 0.5 µg/mL | 4 µg/mL | 0.5 µg/mL | 0.25 µg/mL | 1 µg/mL | 4 µg/mL | 2 µg/mL | – |
| CCCC[C@@H]1NC(=O)[C@@H]2CCCN2C(=O)[C@H]2CCCN2C(=O)[C@H](C(C)C)NC(=O)[C@H](C)NC(=O)[C@H](Cc2ccc(O)cc2)NC(=O)[C@@H](NC(=O)[C@H](Cc2c[nH]c3ccccc23)NC(C)=O)CSSC[C@@H](C(=O)N[C@@H](CCCN)C(=O)N[C@@H](CCN)C(=O)N[C@H]2CCNC(=O)[C@H]([C@@H](C)O)NC(=O)[C@H](CCN)NC(=O)[C@H](CCN)NC(=O)[C@H](CC(C)C)NC(=O)[C@@H](Cc3ccccc3)NC(=O)[C@H](CCN)NC2=O)NC(=O)[C@H](Cc2ccc(O)cc2)NC(=O)[C@H](CO)NC1=O [Ex. 52] (Ac-WCYAV[dP]P[Nle]SYC[Orn][Dab][Dab][Dab][dF]L[Dab][Dab]T; disulfide 2-11; lactam 14-C) | 2% | 0.5 µg/mL | 4 µg/mL | 0.5 µg/mL | 0.5 µg/mL | 4 µg/mL | 2 µg/mL | 3 µg/mL | – |
| CCCC[C@@H]1NC(=O)[C@@H]2CCCN2C(=O)[C@@H](CCN)NC(=O)[C@H](CO)NC(=O)[C@H](C)NC(=O)[C@H](C(C)(C)C)NC(=O)[C@@H](NC(=O)[C@H](Cc2c[nH]c3ccccc23)NC(C)=O)CSSC[C@@H](C(=O)N[C@@H](CCCN)C(=O)N[C@@H](CCN)C(=O)N[C@H]2CCNC(=O)[C@H]([C@@H](C)O)NC(=O)[C@H](CCN)NC(=O)[C@H](CCN)NC(=O)[C@H](CC(C)C)NC(=O)[C@@H](Cc3ccccc3)NC(=O)[C@H](CCN)NC2=O)NC(=O)[C@H](Cc2ccc(O)cc2)NC(=O)[C@H](CO)NC1=O [Ex. 53] (Ac-WC[Tle]AS[dDab]P[Nle]SYC[Orn][Dab][Dab][Dab][dF]L[Dab][Dab]T; disulfide 2-11; lactam 14-C) | 1% | 0.25 µg/mL | 2 µg/mL | 0.5 µg/mL | 0.25 µg/mL | 2 µg/mL | 8 µg/mL | 1 µg/mL | – |
| CCCC[C@@H]1NC(=O)[C@@H]2CCCN2C(=O)[C@H]2CCCN2C(=O)[C@H](CO)NC(=O)[C@H](C)NC(=O)[C@H](C(C)(C)C)NC(=O)[C@@H](NC(=O)[C@H](Cc2c[nH]c3ccccc23)NC(C)=O)CSSC[C@@H](C(=O)N[C@@H](CCCN)C(=O)N[C@@H](CCN)C(=O)N[C@H]2CCNC(=O)[C@H]([C@@H](C)O)NC(=O)[C@H](CCN)NC(=O)[C@H](CCN)NC(=O)[C@H](CC(C)C)NC(=O)[C@@H](CC(C)C)NC(=O)[C@H](CCN)NC2=O)NC(=O)[C@H](Cc2ccc(O)cc2)NC(=O)[C@H](CO)NC1=O [Ex. 54] (Ac-WC[Tle]AS[dP]P[Nle]SYC[Orn][Dab][Dab][Dab][dL]L[Dab][Dab]T; disulfide 2-11; lactam 14-C) | 1% | 0.5 µg/mL | 1 µg/mL | 0.5 µg/mL | 0.25 µg/mL | 2 µg/mL | 4 µg/mL | 1 µg/mL | – |
| CCCC[C@@H]1NC(=O)[C@@H]2CCCN2C(=O)[C@H]2CCCN2C(=O)[C@H](CO)NC(=O)[C@H](C)NC(=O)[C@H](C(C)(C)C)NC(=O)[C@H](CCN)NC(=O)[C@H](Cc2c[nH]c3ccccc23)NC(=O)[C@@H](NC(C)=O)CSSC[C@@H](C(=O)N[C@@H](CCN)C(=O)N[C@H]2CCNC(=O)[C@H]([C@@H](C)O)NC(=O)[C@H](CCN)NC(=O)[C@H](CCN)NC(=O)[C@H](CC(C)C)NC(=O)[C@@H](Cc3ccccc3)NC(=O)[C@H](CCN)NC2=O)NC(=O)[C@H](CCCN)NC(=O)[C@H](CCN)NC(=O)[C@H](Cc2ccc(O)cc2)NC(=O)[C@H](CO)NC1=O [Ex. 57] (Ac-CW[Dab][Tle]AS[dP]P[Nle]SY[Dab][Orn]C[Dab][Dab][Dab][dF]L[Dab][Dab]T; disulfide 1-14; lactam 16-C) | <1% | 1 µg/mL | 4 µg/mL | 0.25 µg/mL | 0.25 µg/mL | 0.5 µg/mL | 8 µg/mL | 1 µg/mL | – |
| CCCC[C@@H]1NC(=O)[C@@H]2CCCN2C(=O)[C@H]2CCCN2C(=O)[C@H](CO)NC(=O)[C@H](C)NC(=O)[C@H](C(C)(C)C)NC(=O)[C@H](CCN)NC(=O)[C@H](Cc2c[nH]c3ccccc23)NC(=O)[C@@H](NC(C)=O)CCC(=O)NCC[C@@H](C(=O)N[C@@H](CCN)C(=O)N[C@H]2CCNC(=O)[C@H]([C@@H](C)O)NC(=O)[C@H](CCN)NC(=O)[C@H](CCN)NC(=O)[C@H](CC(C)C)NC(=O)[C@@H](Cc3ccccc3)NC(=O)[C@H](CCN)NC2=O)NC(=O)[C@H](CCCN)NC(=O)[C@H](CCN)NC(=O)[C@H](Cc2ccc(O)cc2)NC(=O)[C@H](CO)NC1=O [Ex. 58] (Ac-EW[Dab][Tle]AS[dP]P[Nle]SY[Dab][Orn][Dab][Dab][Dab][Dab][dF]L[Dab][Dab]T; lactam 1-14, 16-C) | – | 0.25 µg/mL | 0.5 µg/mL | 0.125 µg/mL | 0.125 µg/mL | 0.5 µg/mL | 2 µg/mL | 0.25 µg/mL | <1% |
